Values after ≈ are worked out from the molar mass of the structure shown. Active and inactive are the calls of the source. The rule behind the calls is not given here. Bridge positions count the residues as written; N and C are the ends. Square brackets hold non-standard residues; d marks the D form. Peptide text beside a SMILES is read from it. S5 = C=CCCC[C@](C)(N)C(=O)O
Tests used:
[1] = Toxicity in C57BL/6 female mouse assessed as haemorrhagic point and blurred white pulp boundary in spleen at 25 mg/kg, ip measured during 14 days of study by H and E staining based analysis; assay type: organism-based; details: in vivo, 336 h, time 14 day
[2] = Toxicity in C57BL/6 mouse assessed as death at 25 mg/kg, ip measured during 14 days of study; assay type: organism-based; details: in vivo, 336 h, time 14 day
[3] = Stability of the compound in human serum assessed as retention time by RP-HPLC analysis; assay type: ADME, cell-free
Escherichia coli [4] = test: Induction of outer membrane synthesis related pathways in Escherichia coli assessed as change in OmpT gene expression at 12.5 uM measured after 2 hrs incubation by PCR analysis; assay type: functional, organism-based
Mus musculus = test: In vivo anti-inflammatory efficacy in Escherichia coli intraperitoneally injected into C57BL/6 mouse peritonitis model assessed as reduction in IL-6 level in blood at 2.5 mg/kg, ip measured after 48 hrs by ELISA; assay type: functional, organism-based
Pseudomonas aeruginosa = test: Antibacterial activity against Carbapenem-resistant Pseudomonas aeruginosa assessed as inhibition of bacterial growth measured after 24 hrs by broth microdilution method; assay type: functional
Cell membrane = test: Induction of Outer membrane damage in Escherichia coli assessed as increase in NPN intensity at 5 uM measured after 24 hrs incubation by microplate reader based outer membrane permeability assay; assay type: subcellular
Salmonella typhimurium = test: Antibacterial activity against Salmonella typhimurium assessed as inhibition of bacterial growth measured after 24 hrs by broth microdilution method; assay type: functional, Salmonella enterica subsp. enterica serovar Typhimurium; details: Salmonella enterica
[5] = Stability of the compound in human serum assessed as peptide degradation by RP-HPLC analysis; assay type: ADME, cell-free; details: read-out: T50 (converted)
Escherichia coli [6] = test: Induction of multiple envelope stress pathway related pathways in Escherichia coli assessed as change in WcaL gene expression at 12.5 uM measured after 2 hrs incubation by PCR analysis; assay type: functional, organism-based
Escherichia coli [7] = test: Induction of assembly related pathways in Escherichia coli assessed as change in OmpW gene expression at 12.5 uM measured after 2 hrs incubation by PCR analysis; assay type: functional, organism-based
[8] = Toxicity in C57BL/6 mouse assessed as death at 50 mg/kg, ip measured on day 4; assay type: organism-based; details: in vivo, 96 h, time 4 day
Shigella flexneri = test: Antibacterial activity against Shigella flexneri 301 assessed as inhibition of bacterial growth measured after 24 hrs by broth microdilution method; assay type: functional
Escherichia coli [9] = test: Induction of metabolism related pathways in Escherichia coli assessed as energetic metabolism pathway mRNAs at 12.5 uM measured after 2 hrs incubation by PCR analysis; assay type: functional, organism-based
Escherichia coli [10] = test: In vivo antibacterial activity against Escherichia coli intraperitoneally injected into C57BL/6 mouse peritonitis model assessed as reduction in bacterial load in blood at 2.5 mg/kg, ip measured after 48 hrs relative to control; assay type: functional, organism-based
Escherichia coli [11] = test: In vivo antibacterial activity against Escherichia coli intraperitoneally injected into C57BL/6 mouse peritonitis model assessed as reduction in bacterial load in liver at 2.5 mg/kg, ip measured after 48 hrs relative to control; assay type: functional, organism-based

For `CC[C@H](C)[C@H](NC(=O)CNC(=O)[C@H](CC(=O)O)NC(=O)[C@H](CCCNC(=N)N)NC(=O)[C@@H](NC(=O)[C@H](CC(N)=O)NC(=O)[C@H](CCC(N)=O)NC(=O)CNC(=O)[C@@H](NC(=O)[C@H](CCCCN)NC(=O)[C@H](CCC(=O)O)NC(=O)[C@@H](NC(=O)[C@H](CCCCN)NC(=O)[C@H](CCCCN)NC(=O)[C@H](Cc1ccccc1)NC(=O)[C@H](CC(C)C)NC(=O)[C@H](CCCCN)NC(=O)[C@H](Cc1c[nH]c2ccccc12)NC(=O)[C@H](CCCCN)NC(C)=O)[C@@H](C)CC)C(C)C)[C@@H](C)CC)C(=O)N[C@H](C(=O)N[C@@H](CCCCN)C(=O)N[C@@H](C)C(=O)NCC(=O)N1CCC[C@H]1C(=O)N[C@@H](C)C(=O)N[C@H](C(=O)N[C@@H](C)C(=O)N[C@H](C(=O)N[C@H](C(=O)NCC(=O)N[C@@H](CCC(N)=O)C(=O)N[C@@H](C)C(=O)N[C@@]1(C)CCC/C=C\CCC[C@@](C)(C(N)=O)NC(=O)[C@H](C)NC(=O)[C@H]([C@@H](C)CC)NC(=O)[C@H](CCC(N)=O)NC1=O)C(C)C)C(C)C)C(C)C)[C@@H](C)CC` (Ac-KWKLFKKIEKVGQNIRDGIIKAGPAVAVVGQA[S5]QIA[S5]-NH2; staple (Z) 33-37), the Activity [1] was “Non-toxic”, the Activity [2] was “Non-toxic” and the Retention_time [3] was 25.17 min. The Activity (Escherichia coli [4]) was “Active”, the Activity (Mus musculus) was “Active” and the MIC (Pseudomonas aeruginosa) was > 100 µM. The Activity (Cell membrane) was “Active”, the MIC (Salmonella typhimurium) was 3.13 µM (≈ 12.7 µg/mL) and the half-life [5] was 9.85 h. For the same compound, the Activity (Escherichia coli [6]) was “Active”, the Activity (Escherichia coli [7]) was “Active” and the Activity [8] was “Toxic”. The MIC (Shigella flexneri) was 1.56 µM (≈ 6.34 µg/mL), the Activity (Escherichia coli [9]) was “Active” and the Activity (Escherichia coli [10]) was “Active; Compound Showed Enhanced Bacterial Elimination Than Cec-0 And Compound Showed Comparable Bacterial Elimination To Polymyxin B”. The Activity (Escherichia coli [11]) was “Active; Compound Showed Enhanced Bacterial Elimination Than Cec-0 And Compound Showed Comparable Bacterial Elimination To Polymyxin B”.
